Reference: patent US6432979B1, “Method of treating or inhibiting colonic polyps and colorectal cancer” (American Cyanamid Company, priority 1999, dated 2002)

System: intestinal polyps (adenomas)
Assay: in vivo standard pharmacological test procedure emulating familial adenomatous polyps (FAP) using the Min mouse; polyp count
Set-up: species or system Min mouse (C57BL/6J-Min/+)
Conditions: for Number of Polyps: 60 days
Source text: The procedure described below emulates familial adenomatous polyps (FAP) in humans using the Min mouse (C57BL/6J-Min/+), which is a strain which has lost […] copies of the APC gene. These animals develop multiple intestinal polyps (adenomas) that ultimately progress to form adenocarcinomas. The polyps that develop in Min mice express EGFR and have activated COX-2. […] The following briefly describes the procedure used and the results obtained in this standard pharmacological test procedure.
The animals were treated for 60 days. The food was weighed once per week to determine consumption, and the animals also weighed weekly. On day 61, the animals were euthanized with CO2 inhalation, and the entire intestinal tract from stomach to anus was removed. The intestinal tract was injected with Bouins fixative, and allowed to fix for several days. The intestinal tracts were then opened and the number of polyps counted. Statistical analysis was performed using the Student's t-Test; a p value of ≦0.05 is considered statistically significant.
The above standard pharmacological test procedure was run again using (4-dimethylamino-but-2-enoic acid [4-(3-chloro-4-fluoro-phenylamino)-3-cyano-7-ethoxy-quinolin-6-yl]-amide as a representative EGFR kinase inhibitor, as follows. Test animals were divided into four treatment groups: Group I, control; Group II, (4-dimethylamino-but-2-enoic acid [4-(3-chloro-4-fluoro-phenylamino)-3-cyano-7-ethoxy-quinolin-6-yl]-amide Group III, sulindac; and Group IV, combination of sulindac and (4-dimethylamino-but-2-enoic acid [4-(3-chloro-4-fluoro-phenylamino)-3-cyano-7-ethoxy-quinolin 6-yl]-amide. The test compound was blended with a standard murine chow and animals were given ad libitum access to the food, in quantities corresponding to the following approximate daily dosages: Group II—20 mg/kg/(4-dimethylamino-but-2-enoic acid [4-(3-chloro-4-fluoro-phenylamino)-3-cyano-7-ethoxy-quinolin-6-yl]-amide, Group III—5 mg/kg/day sulindac; and Group IV—20 mg/kg/(4-dimethylamino-but-2-enoic acid [4-(3-chloro-4-fluoro-phenylamino)-3-cyano-7-ethoxy-quinolin-6-yl]-amide and 5 mg/kg/day sulindac. The animals were treated for 60 days. The food was weighed once per week to determnine consumption, and the animals also weighed weekly. On day 61, the animals were euthanized with CO2 inhalation, and the entire intestinal tract from stomach to anus was removed. The intestinal tract was injected with Bouins fixative, and allowed to fix for several days. The intestinal tracts were then opened and the number of polyps counted. Statistical analysis was performed using the Students t-Test; a p value of ≦0.05 is considered statistically significant.

SMILES: CC#CC(=O)Nc1ccc2ncnc(Nc3cccc(Br)c3)c2c1
- Number of Polyps (first run, 40 mg/kg/day in chow, counted day 61, control 32.3 ± 20.7): 15.6 ± 10.6

SMILES: CC1=C(CC(=O)O)c2cc(F)ccc2/C1=C\c1ccc([S+](C)[O-])cc1 (stereo not shown) [sulindac]
- Number of Polyps (first run, 20 mg/kg/day sulindac in chow, counted day 61, control 32.3 ± 20.7): 10.0 ± 6.6
- Number of Polyps (third run, 5 mg/kg/day sulindac in chow, control 19.5 ± 14.1): 20.6 ± 11.8
- reduction of polyp numbers (in words) (third run, sulindac alone at the 5 mg/kg dose): did not reduce polyp numbers at all
